For 121 molecules, melting point results are on record in a melting point compilation (Tetko et al.).

Usually melting point stands for the temperature, or range, at which the solid turns liquid. Consider `Cc1cc(C(=O)CCl)c(C)n1-c1cccc(C(F)(F)F)c1`, for which the melting point lay within 96 to 98 °C. `N#Cc1cnn(-c2ccncc2)c1N` showed a melting point of 273 to 275 °C. Consider `NC(=O)c1ccn(-c2ccccc2)n1`, for which the melting point lay within 149 to 151 °C. `O=C(O)c1c(-n2cccc2)sc2c1CCCC2` had a melting point of 158 to 162 °C. Molecule `O=C(O)c1ccn(-c2ccccc2Cl)n1` returned a melting point of 187 to 189 °C. As for `Cc1ccccc1CCNC(=O)C(C)Cl` (stereo unspecified), the melting point was in the range of 59 to 61 °C. With `O=C(O)c1cccn1Cc1cccnc1`, the melting point lay within 172 to 174 °C. Regarding `CC(C)c1nnc(CC#N)[nH]1`, the melting point lay in the range of 148 to 150 °C. Consider `CCOC(=O)c1ccc(-n2c(C)cc(C=O)c2C)cc1`, for which the melting point lay within 113 to 115 °C. For `NNC(=O)CSc1nc2ccccc2o1`, the melting point lay in the range of 169 to 171 °C. Molecule `O=C(O)c1ccc(F)c(S(=O)(=O)N2CCOCC2)c1` gave a melting point of 175 to 178 °C. The same measure for `Fc1cccc2[nH]c(C3CCNCC3)nc12`: 229 to 231 °C; for `COc1cc(C=C2CCc3c2nc2ccccc2c3C(=O)O)cc(OC)c1OC`: 246 to 248 °C; for `NC(=S)NCCc1cccs1`: 127 to 129 °C. Take `Cc1ccc2ncc(C(=O)O)n2c1`: the melting point lay within 177 to 179 °C.

On to `N#Cc1cccnc1Oc1ccccc1N`, for which the melting point is 171 to 173 °C. `NNC(=O)Nc1cc(F)cc(F)c1` had a melting point of 176 to 178 °C. `Cc1nsc2ncc(C(=O)O)cc12` showed a melting point of 179 to 181 °C. `Cn1cc(C(=O)O)c(-c2coc3ccccc23)n1` yielded a melting point of 277 to 279 °C. For `C=CCNC(=S)N1CCOCC1`, the melting point was in the range of 61 to 63 °C. In turn, `C=CC(=O)Nc1ccc(OC)c(OC)c1` registered a melting point of 102 to 104 °C. Molecule `CSCc1cc(C(=O)O)sc1C` returned a melting point of 135 to 137 °C. `N#Cc1ccc(OCc2ccccc2)nc1` gave a melting point of 71 to 73 °C.

On to `O=C(O)c1ccc(-c2cccc(Cl)c2)s1`, for which the melting point fell in the range of 222 to 224 °C. `COC(=O)c1ccc(Cl)c(S(=O)(=O)Cl)c1`: the melting point is 103 to 105 °C. As for `Cc1ccc(OCc2nc(C(=O)O)cs2)cc1`, the melting point lay in the range of 198 to 200 °C. The molecule `CC(C)C(=O)Nc1ccc(C(=O)O)cc1` came in with a melting point of 240 to 242 °C. The same measure for `Cc1ccc(S(=O)(=O)CC(C)O)cc1` (stereo unspecified): 76 to 78 °C.

Regarding `N#Cc1ccc(Br)cc1[N+](=O)[O-]`, the melting point lay in the range of 91 to 93 °C. `C#CCNS(=O)(=O)c1ccc(C(=O)O)cc1`: the melting point lay in the range of 149 to 151 °C. `CC(=O)CC(=O)c1ccc(Cl)cc1` had a melting point of 67 to 71 °C. On to `CC1=CC=CC(=C2Nc3ccc(F)cc3N2C(C)C)C1=N`, for which the melting point lay within 160 to 162 °C. As for `CC(C)c1cc(C(=O)O)nn1C`, the melting point lay within 87 to 89 °C. To `CN(C)c1cc(N)ccn1` belongs 146 to 148 °C; to `NC(=O)CC1CCCCN1` (stereo unspecified), 108 to 110 °C; to `CC(C)CC(C)n1nccc1N` (stereo unspecified), 55 to 57 °C.

`Clc1nc(CN2CCCCC2)nc2sc3c(c12)CCCC3` came in with a melting point of 51 to 53 °C. The same measure for `CC(C)(C)Oc1ccc(C(N)=S)cc1`: 179 to 181 °C. `CCOC(=O)/C(C#N)=C\Nc1ccccc1F` had a melting point of 142 to 144 °C. The molecule `CCN(CC)c1ccc([N+](=O)[O-])cc1C(=O)O` gave a melting point of 184 to 186 °C. In turn, `N#Cc1cnc2ccccc2c1OCCO` had a melting point of 172 to 174 °C. Regarding `COc1ccc2c(c1)c(C(=O)O)c(C)n2C1CCCC1`, the melting point was 174 to 176 °C. In the case of `NC(=O)c1nnn(-c2ccccc2)c1N`, the melting point fell in the range of 160 to 162 °C. `CCOC(=O)c1sc2ncc(C#N)cc2c1C`: the melting point is 181 to 183 °C.

Turning to `C=CCn1c(=S)sc2c(=O)[nH]cnc21`, the melting point fell in the range of 216 to 218 °C.

Consider `NNc1ncnc2cc(-c3ccc(F)cc3)sc12`, for which the melting point lay within 237 to 239 °C.

For the molecule `O=C(O)c1cc(OCC(F)(F)F)cc(OCC(F)(F)F)c1`, the melting point was 141 to 143 °C.

`COC(=O)c1cc(C(=O)O)n(-c2ccccc2)n1`: the melting point was 161 to 163 °C. Turning to `Cc1ccc(CNC(=O)NCC(=O)O)cc1`, the melting point lay within 174 to 176 °C. Consider `CC(=O)NCc1ccc(S(N)(=O)=O)cc1`, for which the melting point was 170 to 172 °C. On to `O=C(O)c1cccc(CO)c1`, for which the melting point was in the range of 111 to 113 °C. Molecule `N#CCc1ccc([N+](=O)[O-])cn1` came in with a melting point of 62 to 64 °C. For the molecule `COc1cccc2[nH]cc(CC#N)c12`, the melting point is 133 to 135 °C. Molecule `Cc1cc(NC(=O)CN2CCNCC2)no1` gave a melting point of 114 to 116 °C. The same measure for `OCc1ncc(-c2ccc(F)cc2)o1`: 81 to 83 °C; for `Cc1cccc(CC(N)=S)c1`: 75 to 77 °C; for `Clc1cnc2ccccc2n1`: 47 to 50 °C.

`CN1C(=O)CCC(C(=O)O)C1c1cnn(C)c1` (stereo unspecified) gave a melting point of 225 to 227 °C. On to `CC(C)N1C(=O)CNCC1(C)C`, for which the melting point lay in the range of 85 to 87 °C. Molecule `CC(C)(C)OC(=O)N1CCN(C(=O)C2CCCN2)CC1` (stereo unspecified) came in with a melting point of 219 to 221 °C. Molecule `Cc1nc(-c2cccs2)c(CC(=O)O)s1` yielded a melting point of 159 to 161 °C. `O=C1COc2ccc(Br)cc21` had a melting point of 111 to 113 °C. `CNc1ncc(C(F)(F)F)cc1Cl` registered a melting point of 44 to 46 °C. `CC1(CCCC(=O)O)NC(=O)NC1=O` (stereo unspecified) yielded a melting point of 149 to 151 °C. Consider `O=C(O)C1CCCN1C(=O)c1ccccc1OC(F)F` (stereo unspecified), for which the melting point is 124 to 126 °C. The molecule `O=C(O)C1=Cc2cccc(O)c2OC1` had a melting point of 233 to 235 °C. The molecule `Cc1ccc(NC2=NC(C)(C)CS2)cc1` had a melting point of 164 to 166 °C. `CCOC(=O)c1c(C)noc1N` registered a melting point of 133 to 135 °C.

`CCS(=O)(=O)Nc1ccc(N)cc1C` returned a melting point of 101 to 103 °C.

The molecule `Cc1nc(N2CCCC2)[nH]c(=O)c1CC(=O)O` had a melting point of 262 to 264 °C. For the molecule `COC(=O)C1CCN(c2nc3ccccc3s2)CC1`, the melting point was in the range of 91 to 93 °C. In turn, `Cc1ccc(C(C)C)c(OCC(=O)O)c1` returned a melting point of 126 to 128 °C. To `Nc1ccc(N2CCNC(=O)C2)c(Cl)c1` belongs 147 to 149 °C; to `CCn1cnnc1Nc1ccccc1`, 125 to 127 °C; to `CC(=O)c1ccc(S(=O)(=O)N2CCCCC2)cc1`, 139 to 142 °C. As to `CC(C)c1ccc(-c2nn(-c3ccccc3)cc2C(=O)O)cc1`, the melting point lay in the range of 222 to 224 °C. `CN(C)C(=O)Sc1cnc2nccn2c1` had a melting point of 129 to 131 °C.

For `O=C(O)Cc1cccc2cccnc12`, the melting point fell in the range of 130 to 132 °C. In turn, `CC(=O)c1ccc2cc(O)ccc2c1` gave a melting point of 170 to 172 °C. The same measure for `O=C(O)C1CCCOC1c1ccccc1` (stereo unspecified): 56 to 58 °C; for `Cn1ncc2c(=O)[nH]nnc21`: 152 to 154 °C.

In the case of `CCC(C)n1nc(C(=O)O)cc1C` (stereo unspecified), the melting point was in the range of 103 to 105 °C. The same measure for `CC(C)N(O)C(=O)C(=O)O`: 99 to 101 °C. Consider `Nc1ncc(C(O)(C(F)(F)F)C(F)(F)F)s1`, for which the melting point was 184 to 186 °C. Take `N#CCNc1cccc(Cl)c1`: the melting point lay within 51 to 53 °C.

In turn, `N#CC1(c2ccc(C(=O)O)cc2)CC1` had a melting point of 219 to 221 °C. In turn, `CC(C)(C)OC(=O)NCCCN` came in with a melting point of 22 to 24 °C. With `O=C(O)C1CC1c1ccc(Cl)c(Cl)c1` (stereo unspecified), the melting point is 141 to 143 °C. `Cc1cccc2sc(NC(=O)OCC(F)(F)F)nc12` registered a melting point of 220 to 222 °C. `Nc1ccccc1NC(=O)c1ccc2ccccc2n1` displayed a melting point of 151 to 153 °C. In turn, `CS(=O)c1nnc[nH]1` (stereo unspecified) showed a melting point of 119 to 121 °C.

`O=C(O)c1ccc(Cl)c(S(=O)(=O)N2CCCCC2)c1` registered a melting point of 218 to 220 °C. The same measure for `CC(C)(C)c1cc(C(=O)O)[nH]n1`: 195 to 197 °C; for `COCCCC(N)=S`: 48 to 50 °C. As for `O=C(O)c1noc(-c2cccc(F)c2F)n1`, the melting point lay within 113 to 115 °C.

The molecule `O=C(O)c1cncnc1-c1ccccc1` registered a melting point of 141 to 143 °C. Turning to `O=C(O)C1CCc2nnc(C(F)F)n2C1` (stereo unspecified), the melting point fell in the range of 215 to 217 °C. To `Cc1ccc(OCc2nc(CC(=O)O)cs2)cc1` belongs 145 to 147 °C; to `Nc1ccccc1NC(=O)c1cccs1`, 110 to 112 °C; to `Nc1cccc(N2CCCS2(=O)=O)c1`, 85 to 87 °C. `CC(C)CC(N)C(O)c1cccs1` (stereo unspecified): the melting point is 63 to 65 °C. `OCCOc1ccccc1O` displayed a melting point of 99 to 100 °C.

Take `O=C(O)c1ccc2c3c(cccc13)CC2`: the melting point was 220 to 223 °C. The same measure for `Nc1ccc2c(c1)CCN2C(=O)c1ccoc1`: 173 to 175 °C.

Regarding `Nc1ccnn1-c1ccc([N+](=O)[O-])cc1`, the melting point fell in the range of 138 to 140 °C. `Cc1ccc(-n2nnnc2S)cc1C` yielded a melting point of 110 to 112 °C. `Cn1c(=O)c2cc(S(=O)(=O)Cl)cnc2n(C)c1=O` gave a melting point of 171 to 173 °C. Take `CC(C)NS(=O)(=O)c1ccc(C(=O)O)cc1`: the melting point lay within 225 to 227 °C.

Turning to `O=C(O)CC(Cc1ccccc1)c1ccccc1` (stereo unspecified), the melting point was in the range of 90 to 92 °C. For the molecule `O=C(O)c1cc(C2CC2)nc2c1cnn2Cc1ccncc1`, the melting point is 238 to 240 °C. In turn, `N#Cc1c(F)cccc1Oc1ccc(C(=O)O)cc1` registered a melting point of 186 to 188 °C. Molecule `O=C(NC(CO)C(=O)O)c1cccc(Br)c1` (stereo unspecified) displayed a melting point of 140 to 142 °C. Turning to `Cc1nc(N)sc1Cc1cccc(Br)c1`, the melting point is 86 to 88 °C. Consider `FC(F)(F)c1cnc(-n2cccn2)c(Cl)c1`, for which the melting point was in the range of 50 to 52 °C. The same measure for `CC(C)c1cc(N)on1`: 33 to 35 °C; for `Cc1sc2nc(-c3ccccn3)nc(Cl)c2c1-c1ccccc1`: 166 to 168 °C; for `CCOc1cc(C=O)cc(Br)c1OCc1ccccc1`: 55 to 57 °C.

In the case of `O=c1cc(C(F)(F)F)[nH]c(=O)[nH]1`, the melting point is 210 to 212 °C. As for `CCOc1ccc(NS(=O)(=O)c2ccc(C)c(C(=O)O)c2)cc1`, the melting point lay in the range of 231 to 233 °C. The molecule `NCCCN1C(=O)C2C3C=CC(C3)C2C1=O` (stereo unspecified) showed a melting point of 66 to 68 °C. The same measure for `O=C(O)c1cccc(OC2CCCCC2)c1`: 75 to 77 °C.
